We go through seven molecules from US5942494A, “Stimulation of gene expression and synthesis of heat shock protein 72/73 (HSP 70)” (The Trustees of Columbia University in the City of New York, priority 1996, dated 1999).

Numbered stars: 1 amine (or outer) side, 2 acyl side, 3 side chain; on linkers, the order of the positions; unused ones are H or OH. Bridge positions count the residues as written; N and C are the ends. Square brackets hold non-standard residues; d marks the D form. Peptide text beside a SMILES is read from it. I, II: the chains in the order shown. * marks the point of attachment. Actinocin(9to1) = Cc1c2oc3c(C)ccc(C(=O)[*:1])c3nc-2c(C(=O)[*:2])c(N)c1=O; Sta = CC(C)C[C@H](N)[C@@H](O)CC(=O)O; NMeV = CN[C@H](C(=O)O)C(C)C; Isovaleryl = CC(C)CC(=O)*; Cbz = O=C(OCc1ccccc1)*; Sar = CNCC(=O)O

What all share (format): cell-based, human
One data set has as its system Hsp70. In words: Hsp70 levels by denaturing immunoprecipitation of [3H]-leucine radiolabeled HepG2 cells. Particulars: for Induction of Hsp70 by protease inhibitors: HepG2, 4 hours pre-treatment, ALLN, ALLM 40 μg/ml, leupeptin, pepstatin A 50 μg/ml, E-64d 25 μg/ml, PMSF 1 mM, aprotinin 100 KIU/ml, Benz 1 mM, CIP 200 μM. How it is done:
The HepG2 cell culture conditions were maintained as previously described (Dixon, et al., 1991). The cells were seeded into collagen-pre-coated dishes or six-well tissue culture plates and grown in complete medium containing minimum essential medium (MEM) with 0.1 mM nonessential amino acids, 1.0 mM sodium pyruvate, penicillin/streptomycin, and 10% fetal bovine serum. Cells were fed fresh complete medium every 3 days and maintained in a 5% CO2 incubator. All experiments were performed by using exponentially growing cells at 90-95% confluency. For heat shock treatment, the dishes were sealed with Parafilm and immersed in a water bath at 42° C. for indicated durations of time. Cells were incubated with ALLN alone at indicated concentrations or combined with other chemicals at 37° C. Cells were also incubated with different protease inhibitors alone at indicated concentrations or combined with other chemicals at 37° C.
(§1) HepG2 cells were preincubated for 4 hours in serum-free MEM and then radiolabeled with ^3 H-Leucine (150 μCi/ml) in a serum-free, leucine-free medium. Preincubation and labeling media each contained either 1.5% bovine serum albumin (BSA) alone, or BSA plus ALLN (40 μg/ml except as otherwise indicated), or BSA plus other protease inhibitors at concentrations indicated in the figure legends. At the indicated times, cells were removed from the 37° C. incubator and placed on ice, washed with cold phosphate-buffer saline (PBS) twice and lysed with lysis buffer containing 1% Triton X-100 (TX100), 1% deoxycholic acid (DOC) and 0.1% SDS in PBS containing proteinase inhibitors: 2 mM phenylmethylsulfonyl fluoride (PMSF); 2 μg/ml ALLN; 2 μg/ml leupeptin; and 2 μg/ml aprotinin. After a 30 min. incubation with lysis buffer at 4° C., the lysates were centrifuged at 14,000 g in a microcentrifuge for 5 min., and the supernatants were adjusted to 1% SDS concentration and boiled for 5 min. to denature the proteins. 1% TX100 was then added to dilute the lysates to a final concentration of 0.1% SDS. Cell lysates containing equal amounts of trichloroacetic acid (TCA)-insoluble radioactivity were used for immunoprecipitations by incubating with individual monoclonal antibody (1 μg/ml) for 2.5 hours at 4° C. Protein-A Sepharose 4B was added afterwards and the lysates incubated for another 1.5 hours at 4° C. to collect the immunocomplexes. After washing four times with 1×NET buffer (containing 0.5% TX100, 0.1% SDS), the immunocomplexes were mixed with sample buffer and boiled for 5 min. Following centrifugation, the supernatants were aliquoted for scintillation counting and for 3-15% gradient polyacrymide gel electrophoresis (SDS-PAGE) . The gels were later subjected to fluorography. All values are presented as the mean ± S.D. from three individual experiments except as otherwise indicated.
Denaturing immunoprecipitation was chosen because Hsp70 is a major cytosolic chaperone protein and it is co-immunoprecipitated with a number of other proteins under non-denaturingconditions (Beckmann, et al., 1990; Zhou, et al., 1995).

A further data set deals with HepG2 cells. Nature of the data set: Total incorporation of radiolabel (TCA cpm) as indicator of cell toxicity, HepG2. The conditions noted are these: HepG2, 4 hours; MG132 10 or 30 μM; lactacystin 10 μM. On the procedure: as §1
A further data set relates to hsp70 (hsp72) mRNA. Nature of the data set: Northern blot of hsp70 (hsp72) mRNA in HepG2 cells. Particulars: with ALLN 40 μg/ml, 4 hours; actinomycin D 10 μg/ml; cycloheximide 50 μg/ml. On the procedure:
HepG2 cells were treated with serum-free MEM containing either 1.5% BSA alone (Control, lane1), BSA plus 40 μg/ml of ALLN (ALLN, lane2), ALLN and 10 μg/ml of actinomycin D (A+AD, lane3), or ALLN and 50 μg/ml of cycloheximide (A+CXM, lane4). After 4 hours treatment at 37° C., cells were harvested. (B). HepG2 cells were treated with 40 μg/ml of ALLN in the serum-free MEM for up to 0 hour (lane1), 1 hour (lane2), 2 hours (lane3), and 3 hours (lane4) and then harvested without recovery. Or after treatment for 3 hours in the presence of ALLN as above, the ALLN containing medium were removed, cells were washed and fed fresh medium containing only BSA for recovery of up to 1 hour (lane5), 3 hours (lane6), 5 hours (lane7) or 7 hours (lane8). The total RNA was prepared, and equal amounts of the samples were loaded and run on a 1% formaldehyde-agarose gel, blotted onto a nylon membrane, and subsequently hybridized with specific synthetic oligonucleotide probes for hsp70 mRNA as described under Experimental Details. The position of 28S and 18S rRNA are shown for reference.
Total RNA was prepared using the procedure of Chomczynski and Sacchi (Chomczynski, et al., 1987) and a commercially prepared reagent, TRISOLV™ (Biotecx Laboratories Inc., Tex.) . Equal amounts of tRNA samples (10 μg) were size-fractionated on a 1% agarose-formaldehyde gel according to the methods described (Maniatis, et al., 1982) and transferred to a piece of QIAGEN plus nylon membrane. To determine loading and transfer efficiency, RNA was stained with ethidium bromide before and after transfer. The membrane was baked for 30 min. at 80° C. in vacuo (a vacuum) followed by UV cross-linking. It was then incubated for 4 hours at 65° C. in a prehybridization mixture containing 10% dextran sulfate, 1% SDS, 1M sodium chloride, 50 mM Tris-HCl (pH 7.5) and 100 μg/ml denatured salmon sperm DNA. Hybridization was carried out for 18 hours at 65° C. in the same buffer with a ^32 P-labeled (1×10^6 cpm/ml) 40-mer oligonucleotide probe to the untranslated 5' region of a human hsp70 gene (Oncogene Science). […] The membrane was then washed four times with 2×SSC, 0.1% SDS at room temperature, one time at 65° C. for 30 min., and one time at room temperature again for 5 min., and finally rinsed with 2×SSC at room temperature. This membrane was air dried and exposed to X-ray film at -80° C. for 48 hours.
Total RNA was isolated from HepG2 cells which had been incubated for 4 hours at 37° C. (FIG. 5A) with MEM containing BSA alone (Control, lane1), BSA plus 40 μg/ml of ALLN (ALLN, lane2), BSA plus ALLN and […] of actinomycin D (A+AD, lane3) or BSA plus ALLN and 50 μg/ml of cycloheximide (A+CXM, lane4). A radioprobe containing a unique sequence specific for the 5' untranslated region of hsp72 (inducible form) (Freeman et al., 1993) was used for Northern blot analysis.

The next data set concerns HSF1. Nature of the data set: EGS cross-linking and Western blot of HSF1 oligomeric forms in HepG2 cells. The conditions noted are these: cycloheximide 50 μg/ml with ALLN 40 μg/ml, 2 hours. On the procedure:
FIGS. 6A-6B: ALLN affects the trimerization of HSF. HepG2 cells were treated with serum-free MEM containing 1.5% BSA for 2 hours at 37° C. without any additions (lane1), at 37 ° C. but containing 40μg/ml of ALLN in the medium (lane2), at 37° C. in a medium containing both ALLN and 50 μg/ml of cycloheximide (lane3) , at 42° C. alone (lane4), or at 42° C. plus cycloheximide in the medium (lane5). Cell lysates were prepared as described under Experimental Details. The lysates were either directly run on the SDS-PAGE (A) to show the steady-state protein levels of HSF1 or subjected to cross-linking with ethylene glycol bis sucrinimidylsuccinate (EGS) before running the gel (B) to show the oligomeric forms of HSF1. The proteins were then transfered to a nitrocellulose membrane and immunoblotted with anti-human HSF1 antibody. Arrows on the right side indicates the monomeric, dimeric or trimeric forms of HSF1, respectively. This experiment was repeated three times with identical results.
For measurement of the steady-state HSF1 protein levels, whole cell extracts were prepared by lysing the cells directly with 2×SDS-sample buffer (Maniatis, et al., 1982). For chemical cross-linking experiments, whole-cell extracts were prepared as described (Mosser, et al., 1988). Briefly, the cold PBS-washed cell pellets were quickly and repeatedly frozen in liquid nitrogen. […]
(In general: In western blotting, separated proteins are transferred to a membrane and probed.)

Regarding `CC(C)CC(=O)N[C@H](C(=O)N[C@H](C(=O)N[C@@H](CC(C)C)[C@@H](O)CC(=O)N[C@@H](C)C(=O)N[C@@H](CC(C)C)[C@@H](O)CC(=O)O)C(C)C)C(C)C` [pepstatin] (Isovaleryl-VV[Sta]A[Sta]-OH), the “Induction of Hsp70 by protease inhibitors” value in the data set with Hsp70 is reported as “No induction”. For the molecule `CC(C)C[C@@H](C=O)NC(=O)[C@H](CC(C)C)NC(=O)[C@H](CC(C)C)NC(=O)OCc1ccccc1` [MG132, Cbz-leucyl-leucyl-leucinal] (Cbz-Leu-Leu-Leu-aldehyde), in the data set with Hsp70 (HepG2, 4 hours, MG132 10 μM or 30 μM, lactacystin 10 μM, 30 min radiolabeling), the “Induction of Hsp70 levels by proteasome inhibitors” value is listed as “induced Hsp70 levels dramatically”. Also, in the data set with HepG2 cells, the “Toxicity to the cells (TCA-precipitable radioactivities)” value is on record as “without obvious toxicity”. For the molecule `C[C@@H]1C[C@@H]([C@H](O)CC2CC(=O)NC(=O)C2)C(=O)[C@@H](C)C1` [cycloheximide], the “Effect of co-treatment on ALLN-induced hsp70 (hsp72) mRNA” value in the data set with hsp70 (hsp72) mRNA is “abolished”. In addition, the “Effect of co-treatment on ALLN-induced HSF1 trimerization” value with HSF1 is “abolished the effect of ALLN on HSF1 trimerization”. With aprotinin, the “Induction of Hsp70 by protease inhibitors” value with Hsp70 is listed as “No induction”. Still for that read-out and setting: in the case of `CC(=O)N[C@@H](CC(C)C)C(=O)N[C@@H](CC(C)C)C(=O)N[C@H](C=O)CCCNC(=N)N` [Leupeptin, leupeptin] it was “ineffective”. As to `Cc1c2oc3c(C)ccc(C(=O)N[C@@H]4C(=O)N[C@H](C(C)C)C(=O)N5CCC[C@H]5C(=O)N(C)CC(=O)N(C)[C@@H](C(C)C)C(=O)O[C@@H]4C)c3nc-2c(C(=O)N[C@@H]2C(=O)N[C@H](C(C)C)C(=O)N3CCC[C@H]3C(=O)N(C)CC(=O)N(C)[C@@H](C(C)C)C(=O)O[C@@H]2C)c(N)c1=O` [actinomycin D] (I: T[dV]P[Sar][NMeV] / II: T[dV]P[Sar][NMeV]; ester I:1-I:C, II:1-II:C; linker I:N-II:N via Actinocin(9to1)), the “Effect of co-treatment on ALLN-induced hsp70 (hsp72) mRNA” value in the data set with hsp70 (hsp72) mRNA was “abolished the effects of ALLN”.

For `O=S(=O)(F)Cc1ccccc1` [PMSF, phenylmethylsulfonyl fluoride], in the data set on Hsp70, the “Induction of Hsp70 by protease inhibitors” value was “No induction”.
